No end group written: not given here.
How the values were obtained:
[1] = biological target: T1, Orphanin FQ receptor (OFQR) (Rattus norvegicus, UniProt P35370); assay: Inhibition of [^125I] Y14-OFQ17 binding / specific OFQ binding in Cos-7 cells transfected with normal OFQR gene; settings: Cos-7 cells transfected with OFQR gene; for IC50: read-out: IC50, concentration dependent inhibition of [^125I] Y14-OFQ17 binding
T1 construct: expressed in transfected cells; host or cells: Cos-7

[2] = test system: colonic contractions; assay: Colonic contractions after infusion of peptide; type: in vivo
[3] = test system: colonic transit; assay: Colonic transit (geometric center) after subcutaneous administration; type: in vivo
[4] = test system: circular muscle strips of distal colon; assay: Spontaneous contraction of circular muscle strips of distal colon from rats with postoperative ileus, in vitro; set-up: species or system rat; settings: strips from rats with PI, 4 h after surgery
Method: In vitro and in vivo colonic motility studies were performed using a known rat model of PI. Rats equipped with a colonic cannula underwent a sham operation or laparotomy plus simple cecum manipulation. Circular muscle strips of distal colon were studied in vitro 4 h after surgery. Cecum manipulation reduced spontaneous colonic muscle contraction by 50% compared to sham operation. […] Similarly, OFQ (10^−7 mol/L) reversed the inhibitory effects; contraction increased 450±60% over basal. […] ATP in myenteric neurons increased 2.5-fold, as measured by quinacrine immunofluorescence. In response to electrical field stimulation, ATP release (luciferase assay) from colonic tissue after cecum manipulation was 50% more than after sham operation. In vivo measurement of colonic transit using carmine migration was performed 4 h after cecum manipulation. In sham-operated rats, carmine migrated 90.8±6.5% of the colon length in 2 h. Cecum manipulation slowed transit 68±5% compared to sham operation. OFQ dose-dependently reversed delayed colonic transit evoked by cecum manipulation (0.5 and 1 nmol/L OFQ improved transit to 76±4% and 94±3%). […] These changes contribute to delayed colonic transit. OFQ, a potent inhibitor of purinergic transmission, reversed PI in rats.

[5] = biological target: T2, OFQ receptor (Rattus norvegicus, UniProt P35370); type: cell-based; settings: Cos-7 cells transfected with OFQ receptor gene
T2 construct: in Cos-7 cells transfected with OFQ receptor gene; expressed in transfected cells; host or cells: Cos-7
T2 sequence (P35370 whole entry): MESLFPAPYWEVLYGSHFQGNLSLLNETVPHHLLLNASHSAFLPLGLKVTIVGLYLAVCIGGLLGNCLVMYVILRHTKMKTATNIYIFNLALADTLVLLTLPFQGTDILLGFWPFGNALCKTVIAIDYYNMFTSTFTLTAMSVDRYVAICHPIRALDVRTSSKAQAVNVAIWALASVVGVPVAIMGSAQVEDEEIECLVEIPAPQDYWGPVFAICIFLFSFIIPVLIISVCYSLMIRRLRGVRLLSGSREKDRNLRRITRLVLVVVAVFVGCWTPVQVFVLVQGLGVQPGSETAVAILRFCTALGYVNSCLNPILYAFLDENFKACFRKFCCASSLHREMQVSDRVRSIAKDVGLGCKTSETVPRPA
Description: Orphanin FQ is a neuropeptide that structurally resembles an opioid peptide. […] While not being limited to any particular mechanism, the present invention contemplates that Orphanin FQ stimulates peristalsis and enhances colonic transit by inhibiting purinergic pathways in myenteric plexus. To delineate the molecular interactions between OFQR and its ligands, Cos-7 cells were transfected with normal or chimeric OFQR genes. […] The ability of Orphanin FQ and related peptides to inhibit cAMP production in Cos-7 cells was evaluated. […] Dynorphin encoding nucleic acids and gene products are known in the art, see for example, NM_024411, NM_133828, NM_174139, NM_018863, M10088, AH002816, K02268, K02267, Alo34562, U58500, and U38912.

T1 sequence (P35370 whole entry): as above

Q: For FGGFTGAKKSARKLANQ [R8K], which IC50 [1] is on record?
A: 0.1 nM

Q: For “Dyn A: Dynorphin A, peptide with structural homology to Orphanin FQ (YGGFLRRIRPKLKWDNQ; Dynorphin A(1-17); UniProt P01213 207-223, looked up)”, which “type of contractions induced” value ([2]; infusion 100 nmol/kg/min) is on record?
A: evoked non-migrating simultaneous contractions

Q: What about the “colonic transit, geometric center” value ([3]; 30 nmol/kg) of the same molecule?
A: 3.14±0.21

Q: And the “colonic transit, geometric center” value ([3]; 100 nmol/kg)?
A: 2.42±0.17

Q: For `Nc1c(S(=O)(=O)O)cc(Nc2ccc(Nc3nc(Cl)nc(Nc4cccc(S(=O)(=O)O)c4)n3)c(S(=O)(=O)O)c2)c2c1C(=O)c1ccccc1C2=O` [reactive blue 2], which “enhancement of spontaneous contraction over basal” value (from here on “enhancement … over basal”) ([4]; 3×10^−5 mol/L) is on record?
A: 287±20%

Q: Which “effect on OFQ binding” value [1] does the source give for “β endorphin 31: opioid peptide tested for effect on OFQ binding” here?
A: no effect

Q: Which “Orphanin FQ activity of substituted analogues” value ([2]; in vivo) does the source give for “substitution by tyrosine: Orphanin FQ with Phe in position 1 substituted by tyrosine (YGGFTGARKSARKLANQ; Nociceptin; UniProt Q13519 130-146, looked up, variant F1Y)” here?
A: no loss of activity

Q: For PPADGS, which “enhancement … over basal” value ([4]; 3×10^−5 mol/L) is on record?
A: 5±4%

Q: For `Cc1ccc(C(=O)Nc2ccc(S(=O)(=O)O)c3cc(S(=O)(=O)O)cc(S(=O)(=O)O)c23)cc1NC(=O)c1cccc(NC(=O)Nc2cccc(C(=O)Nc3cc(C(=O)Nc4ccc(S(=O)(=O)O)c5cc(S(=O)(=O)O)cc(S(=O)(=O)O)c45)ccc3C)c2)c1` [Suramin], which “enhancement … over basal” value ([4]; 10^−4 mol/L) is on record?
A: 210±15%

Q: With “Dynorphin 17: Dynorphin peptide tested for effect on OFQ binding” as the molecule, how does the “effect on OFQ binding” value [1] read?
A: no effect

Q: How did the “Orphanin FQ activity of substituted analogues” value ([2]; in vivo) turn out when “replacement of Arg^8 by L-alanin: Orphanin FQ with Arg8 replaced by L-alanine (FGGFTGAAKSARKLANQ; Nociceptin; UniProt Q13519 130-146, looked up, variant R8A)” was run?
A: complete loss of activity

Q: For Pertussis toxin, which “effect on the inhibitory action of OFQ on cAMP production” value [5] is on record?
A: reversed the inhibitory action of OFQ

Q: Which “potency in stimulating contractions compared with full peptide Orphanin FQ(1–17)” value ([2]; in vivo) does the source give for “Orphanin FQ(1–13): Orphanin FQ fragment, amino acids 1–13” here?
A: same potency

Q: How did the IC50 [1] turn out when FGGFTGARKSA [OFQ11] was run?
A: 5000 nM

Q: For “Orphanin FQ(1–12): Orphanin FQ fragment, amino acids 1–12 (FGGFTGARKSAR; Nociceptin; UniProt Q13519 130-141, looked up, fragment)”, which “potency relative to Orphanin FQ(1–17), times less potent” value ([2]; in vivo) is on record?
A: 100 times

Q: For FGGFTGARKSARCLANQ [K13C], which IC50 [1] is on record?
A: 0.1 nM
